d = 2'-deoxy (DNA); m = 2'-O-methyl
How the values were obtained:
[1] = system: human HDAC-6 RNA; assay: HDAC-6 RNA expression screen, Northern blot; format: cell-based; details: screened as above (T24 cells, 100 nM, 24 hours)
Description: (§1) To identify antisense oligodeoxynucleotide (ODN) capable of inhibiting HDAC-1 expression in human cancer cells, eleven phosphorothioate ODNs containing sequences complementary to the 5′ or 3′ UTR of the human HDAC-1 gene (GenBank Accession No. U50079) were initially screened in T24 cells at 100 nM. Cells were harvested after 24 hours of treatment, and HDAC-1 RNA expression was analyzed by Northern blot analysis. […] HDAC-1 MM oligo was created as a control; compared to the antisense oligo, it has a 6-base mismatch.
Thirteen phosphorothloate ODNs containing sequences complementary to the 5′ or 3′ untranslated regions of the human HDAC-6 gene (GenBank Accession No. AJ011972) were screened as above. […] HDAC-6 MM oligo was created as a control; compared to the antisense oligo, it contains a 7-base mismatch.

[2] = system: mammalian HDAC; details: Yoshida et al., J. Biol. Chem. 265:17174-17179 (1990); cited from earlier work
[3] = system: murine erythroleukemia cells; details: Yoshida et al, Cancer Res. 47:3688-3691 (1987); cited from earlier work
[4] = system: Du145 cells; assay: Growth inhibition by antisense oligos, Du145; format: cell-based, human; details: 50 nM, 48 hour, vs cells treated with lipofectin
Description: (§2) For all ex vivo oligo treatment, human A549 human […] carcinoma cells were seeded in 10 cm tissue culture dishes one day prior to oligonucleotide treatment. The cell lines were obtained from the American Type Culture Collection (ATCC) (Manassas, Va.) and were grown under the recommended culture conditions. Before the addition of the oligonucleotides, cells were washed with PBS (phosphate buffered saline). Next, lipofectin transfection reagent (GIBCO BRL Mississauga, Ontario, Calif.), at a concentration of 6.25 μg/ ml, was added to serum free OPTIMEM medium (GIBCO BRL, Rockville, Md.), which was then added to the cells. The oligonucleotides were added directly to the cells (i.e., one oligonucleotide per plate of cells). Mismatched oligonucleotides were used as controls. The same concentration of oligonucleotide (e.g., 50 nM) was used per plate of cells for each oligonucleotide tested.
(§3) In order to determine the effect of HDAC ODNs on cell growth inhibition and cell death through apoptosis, A549, T24, DuI45, HCT116 cells (ATCC, Manassas, Va.), or HMEC cells (BioWhittaker, Walkersville, Md.) were treated with HDAC ODNs as previously described.
(§4) For the cell growth inhibition analysis, human cancer or normal cells were treated with 50 nM of paired AS or MM oligos directed against human HDAC-1, HDAC-7 or HDAC-8for up to 96 hours. Cell numbers were counted every day by trypan blue exclusion. Percentage of inhibition was calculated as (100 - AS cell numbers/control cell numbers)%.

[5] = system: A549 cells; assay: Growth inhibition by antisense oligos, A549; format: cell-based, human; details: 50 nM, 48 hour, vs cells treated with lipofectin
Description: as §2, §3, §4

[6] = system: human HDAC-8 mRNA; assay: HDAC-8 mRNA expression in A549 cells, Northern blot; format: cell-based
Description: To identify antisense oligodeoxynucleotides (ODN) capable of inhibiting HDAC-8 expression in human cancer cells, fourteen phosphorothioate ODNs containing sequences complementary to the 5′ or 3′ UTR of the human […] (GenBank Accession No. AF230097) were initially screened in A549 cells at 100 nM. Cells were harvested after 24 hours of treatment, and HDAC-8 RNA expression was analyzed by Northern blot analysis. […] Total RNAs were harvested and were analyzed by Northern Blot. GAPDH expression was analyzed to indicate total RNA loading in each lane.
In order to determine the dose response of HDAC7 antisense inhibitors to reduce HDAC7 message at the mRNA level, Human A549 cells were treated with 25 or 50 nM of antisense (AS1 and AS2) oligos directed against human HDAC-7 or the corresponding mismatch of AS1 (MM1) oligo or an universal mismatch (UMM) for 24 hours. […] The time dependence of HDAC7 antisense inhibitors on blocking HDAC7 gene expression at the mRNA level was analyzed by treating A549 cells with 50 nM AS1 or MM1 oligos. […] Similarly, A549 cells were treated with 25 nM or 50 nM of AS1 or AS2 oligos directed against human HDAC-8 or its MM oligo for AS2 (MM2) for 24 hours. AS-2 oligo against human HDAC8 at 50 nM was also used to treat A549 cells for 24 or 48 hours.
as §2
Cells were harvested, and total RNAs were analyzed by Northern blot analysis. Briefly, total RNA was extracted using RNeasy miniprep columns (QIAGEN Canada, Mississauga, Ontario). Ten to twenty […] of total RNA was run on a formaldehyde-containing 1% agarose gel with 0.5 M sodium phosphate (pH 7.0) as the buffer system. RNAs were then transferred to nitrocellulose membranes and hybridized with the indicated radiolabeled DNA probes. Autoradiography was performed using conventional procedures.

[7] = system: A549 cells; assay: Apoptosis (Cell Death Detection ELISA), A549; format: cell-based, human; details: 50 nM, 48 hours, over mismatch control
Description: as §2, §3
(§5) For the apoptosis study, cells were analyzed using the Cell Death Detection ELISA^Plus kit (Roche Diagnostic GmBH, Mannheim, Germany) according to the manufacturer's directions. Typically, 10,000 cells were plated in 96-well tissue culture dishes for 2 hours before harvest and lysis. Each sample was analyzed in duplicate. ELISA reading was done using a MR700 plate reader (DYNEX Technology, Ashford, Middlesex, England) at 410 nm. The reference was set at 490 nm.
[…] Similarly, A549 cells were treated with 20 nM of HDAC1 AS in combination with 20 nM of each of AS inhibitors against human HDAC2 to HDAC8. After 48 hour treatment, A549 cells were harvested and analyzed for apoptosis by ELISA as described previously. Apoptosis of A549 cells by AS inhibition was compared to that of cells treated with 1 uM TSA for 16 hours. […] The control oligo UMM had no effect on induction of apoptosis.

[8] = system: HCT116 cells; assay: Inhibition of agar colony formation, HCT116; format: cell-based, human; details: 50 nM oligos for 48 hours, vs cells treated with lipofectin
[9] = system: T24 cells; assay: Apoptosis (Cell Death Detection ELISA), T24; format: cell-based, human; details: 50 nM, 48 hours, over mismatch control
Description: as §2, §3, §5

[10] = system: MDAmb231 cells; assay: Inhibition of agar colony formation, MDAmb231; format: cell-based, human; details: 50 nM oligos for 48 hours, vs cells treated with lipofectin
[11] = system: MDAmb231 cells; assay: Apoptosis (Cell Death Detection ELISA), MDAmb231; format: cell-based, human; details: 50 nM, 48 hours, over mismatch control
[12] = system: MDAmb231 cells; assay: Growth inhibition by antisense oligos, MDAmb231; format: cell-based, human; details: 50 nM, 48 hour, vs cells treated with lipofectin
Description: [The procedure below names another cell line; the source lists this cell line under the same test.] as §2, with “tested. […]” for “tested.”
as §4

[13] = system: HCT116 cells; assay: Growth inhibition by antisense oligos, HCT116; format: cell-based, human; details: 50 nM, 48 hour, vs cells treated with lipofectin
Description: as §2, with “tested. […]” for “tested.”
as §4

[14] = system: human HDAC-2 RNA; assay: HDAC-2 RNA expression screen, Northern blot; format: cell-based; details: screened as above (T24 cells, 100 nM, 24 hours)
Description: as §1
Twenty-four phosphorothioate ODNs containing sequences complementary to the 5′ or 3′ UTR of the human HDAC-2 gene (GenBank Accession No. U31814) were screened as above. […] HDAC-2 MM was created as a control; compared to the antisense oligo, it contains a 7-base mismatch.

5′-CAGGCTGGAATGAGCTACAG-3′ (sugars from the 5' end m4 d12 m4, all phosphorothioate, methylation of C not given here) [HD6 AS, antisense oligo, Human HDAC6 3′-UTR]
HDAC-6 RNA expression, screen [1]: antisense activity to human HDAC-6

CC(/C=C/C(=O)NO)=C\[C@@H](C)C(=O)c1ccc(N(C)C)cc1 [TSA, (R)-Trichostatin A]
inhibition of mammalian HDAC [2]: potent inhibitor
induction of differentiation [3]: potent inducer of differentiation

5′-AGCCAGCTGCCACTTGAUGC-3′ (sugars from the 5' end m4 d12 m4, all phosphorothioate, methylation of C not given here) [HD8 AS2, antisense oligo, Human HDAC8 3′-UTR]
Growth Inhibition Du145 [4]: + (“+” means >35% inhibition of cell growth by antisense oligos (50 nM, 48 hour) compared to that of cells treated with lipofectin)
Growth Inhibition A549 [5]: + (“+” means >35% inhibition of cell growth by antisense oligos (50 nM, 48 hour) compared to that of cells treated with lipofectin)
HDAC-8 mRNA expression, dose response (FIG. 5) ([6]; 25 nM or 50 nM, 24 hours): inhibited in a dose-dependent manner
HDAC-8 mRNA expression, time course (FIG. 6) ([6]; 50 nM, 24 or 48 hours): significantly block HDAC8 expression at the mRNA level by 24 hours
HDAC-8 RNA expression, initial screen ([6]; 100 nM, 24 hours): good antisense activities
Apoptosis A549 [7]: + (“+” means the induction of apoptosis at least 2 fold over mismatch control (50 nM, 48 hours))
inhibition of agar colony formation HCT 116 [8]: + (“+” means >35% inhibition of agar colony formation of cells treated with 50 nM oligos for 48 hours compared to that of cells treated with lipofectin)
Apoptosis T24 [9]: + (“+” means the induction of apoptosis at least 2 fold over mismatch control (50 nM, 48 hours))

5′-GCUGCCTGCCGTGCCCACCC-3′ (sugars from the 5' end m4 d12 m4, all phosphorothioate, methylation of C not given here) [HD4 AS1, antisense oligo, Human HDAC4 5′-UTR]
Growth Inhibition Du145 [4]: + (“+” means >35% inhibition of cell growth by antisense oligos (50 nM, 48 hour) compared to that of cells treated with lipofectin)
Growth Inhibition A549 [5]: + (“+” means >35% inhibition of cell growth by antisense oligos (50 nM, 48 hour) compared to that of cells treated with lipofectin)
inhibition of agar colony formation MDAmb 231 [10]: + (“+” means >35% inhibition of agar colony formation of cells treated with 50 nM oligos for 48 hours compared to that of cells treated with lipofectin)
Apoptosis MDAmb 231 [11]: + (“+” means the induction of apoptosis at least 2 fold over mismatch control (50 nM, 48 hours))
Apoptosis A549 [7]: + (“+” means the induction of apoptosis at least 2 fold over mismatch control (50 nM, 48 hours))
Growth Inhibition MDAmb 231 [12]: + (“+” means >35% inhibition of cell growth by antisense oligos (50 nM, 48 hour) compared to that of cells treated with lipofectin)
inhibition of agar colony formation HCT 116 [8]: + (“+” means >35% inhibition of agar colony formation of cells treated with 50 nM oligos for 48 hours compared to that of cells treated with lipofectin)
Apoptosis T24 [9]: + (“+” means the induction of apoptosis at least 2 fold over mismatch control (50 nM, 48 hours))
Growth Inhibition HCT 116 [13]: + (“+” means >35% inhibition of cell growth by antisense oligos (50 nM, 48 hour) compared to that of cells treated with lipofectin)

5′-GCUGAGCTGTTCTGATUUGG-3′ (sugars from the 5' end m4 d12 m4, all phosphorothioate, methylation of C not given here) [HD2 AS, antisense oligo, Human HDAC2 3′-UTR]
Growth Inhibition Du145 [4]: + (“+” means >35% inhibition of cell growth by antisense oligos (50 nM, 48 hour) compared to that of cells treated with lipofectin)
HDAC-2 RNA expression, screen [14]: antisense activity to human HDAC-2
